Measurements reported in publication PMC12284513, “Unique structural features define the decarboxylation activity of a CYP152 fatty acid decarboxylase from Lacicoccus alkaliphilus” (The Journal of Biological Chemistry, 2025).
Several values for one entry are separate records, joined by “and”; a condition that tells them apart may be missing. Identical values can stand only once. Like-named read-outs stand apart in the source and are kept apart here.

Experiments:
[1] = target: T1, OleTJE (Jeotgalicoccus sp. ATCC 8456, UniProt E9NSU2); assay: Substrate binding by isothermal titration calorimetry (ITC); set-up: species or system Jeotgalicoccus sp. 8456; conditions: pH 7.5, 25 °C
T1 sequence (E9NSU2 1-422): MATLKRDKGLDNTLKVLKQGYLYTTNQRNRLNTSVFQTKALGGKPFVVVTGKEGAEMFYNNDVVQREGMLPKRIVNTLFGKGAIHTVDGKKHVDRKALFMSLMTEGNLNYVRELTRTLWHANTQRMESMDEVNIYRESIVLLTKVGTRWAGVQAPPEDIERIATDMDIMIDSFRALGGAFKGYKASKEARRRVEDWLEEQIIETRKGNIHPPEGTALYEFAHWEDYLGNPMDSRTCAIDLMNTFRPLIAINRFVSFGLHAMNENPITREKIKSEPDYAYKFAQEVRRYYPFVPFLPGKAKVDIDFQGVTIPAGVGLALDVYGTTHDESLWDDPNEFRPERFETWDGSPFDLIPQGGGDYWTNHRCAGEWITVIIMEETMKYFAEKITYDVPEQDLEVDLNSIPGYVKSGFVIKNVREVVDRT
Protocol: (§1) The reactions were constantly stirred at 750 rpm while controlling the temperature at 25 °C during titration. A total of 19 enzyme injections were added into the substrate solution. […] For the other 18 injections, 2 μl of the enzyme solution was added with […] to ensure that the conditions are under equilibrium. The data were processed and analyzed using the Microcal PEAQ-ITC analysis software to calculate the Kd value based on a single-site binding model.

[2] = target: T2, OleTLA (Lacicoccus alkaliphilus, UniProt A0A1M7CBV6); assay: as above; conditions: pH 7.5, 25 °C
T2 sequence (A0A1M7CBV6 1-424): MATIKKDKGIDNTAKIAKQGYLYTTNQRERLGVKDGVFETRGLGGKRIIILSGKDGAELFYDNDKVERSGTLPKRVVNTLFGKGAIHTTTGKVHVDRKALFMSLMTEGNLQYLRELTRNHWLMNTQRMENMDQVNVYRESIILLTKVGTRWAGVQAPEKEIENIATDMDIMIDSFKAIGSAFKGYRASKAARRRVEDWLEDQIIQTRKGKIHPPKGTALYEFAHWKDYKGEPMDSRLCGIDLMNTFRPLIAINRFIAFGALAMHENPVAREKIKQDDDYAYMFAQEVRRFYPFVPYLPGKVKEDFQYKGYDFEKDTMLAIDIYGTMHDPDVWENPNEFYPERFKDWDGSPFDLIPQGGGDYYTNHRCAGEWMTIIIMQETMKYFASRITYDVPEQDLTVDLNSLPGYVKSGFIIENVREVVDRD
Protocol: as §1, with “The enzyme solution was filled into a syringe while the C16FA solution was filled into the ITC cell. The reactions” for “The reactions”

[3] = target: T2, OleTLA; assay: Equilibrium substrate binding by heme spectral change (absorbance at 390 nm); conditions: read-out: Kd from absorbance changes at 390 nm
[4] = target: OleTLA I178L (Lacicoccus alkaliphilus, UniProt A0A1M7CBV6, I178L); assay: Steady-state kinetics of C16FA decarboxylation with H2O2, C15 alkene by GC-MS; assay type: biochemical; conditions: 10% (v/v) EtOH, 400 μM H2O2, pH 7.5, 25 °C
Protocol: (§2) Under specific times between 0.1 to 2 min, the reaction samples were taken and quenched by adding an equal volume of ethyl acetate. The ethyl acetate layer would contain the C15 alkene product, which was measured using GC-MS. Values of initial rates were plotted against substrate concentrations to analyze for Km and Vmax values using the Michaelis–Menten equation by GraphPad Prism software version 10.
(§3) Site-directed mutagenesis of I178L of OleTLA and […] of OleTJE was done with overlaping PCR that used OleTLA or OleTJE plasmids as templates (Table S4). The PCR products were treated with DpnI in cut smart buffer at 37 °C for 16 h, transformed into E. coli XL−1 blue competent cells and grown at 37 °C on LB agar containing 50 μg/ml ampicillin. The plasmids of selected colonies were extracted for sequence verification. The plasmid containing the correct sequence was transformed into E. coli BL21 (DE3) for enzyme expression. The expression and purification methods of variants were the same as those of wild-type OleTLA and OleTJE.

[5] = target: T2, OleTLA; assay: as above; assay type: biochemical; conditions: for kcat / Km: 400 μM H2O2, pH 7.5, 25 °C
Protocol: as §2

[6] = tested on: OleTJE L176I; assay: Fatty acid bioconversion with H2O2 as co-substrate (alkene by GC-MS, hydroxy products by HPLC-MS); assay type: biochemical, Jeotgalicoccus sp. 8456; conditions: 200 μM substrate, 400 μM H2O2
Protocol: A reaction was typically quenched by adding 2-fold reaction volume of ethyl acetate which contained 30 μM of tetradecane as an internal standard. The reaction mixtures were vortexed for 1 min and then centrifuged at 12,000 rpm, 4 °C for 10 min to separate an organic and an aqueous phase. The organic phase was injected into an Agilent gas chromatography system (GC-MS) (Agilent 7890B equipped with Agilent 5977B MSD) equipped with a HP5-MS column (30 m × 0.25 mm × […]) (Agilent), and helium was used as a carrier gas. The oven conditions for C10FA and 1-nonene (C9 alkene) were ramped up from 60 to 240 °C with a rate of 19 ° C min^−1 and held at 240 °C for 1 min. […] For C18FA and 1-heptadecene (C17 alkene), the oven was ramped up from 60 to 250 °C with a rate of 22 °C min^−1 and hold at 250 °C for 4 min. For C20FA and 1-nonadecene (C19 alkene), the oven was ramped up from 100 to 250 °C with a rate of 23 °C min^−1 and held at 250 °C for 6 min. The response of target compounds was normalized with signals of the internal standard. The concentration of each compound was calculated based on a standard calibration curve.
For analyzing hydroxylated products of fatty acids, the reactions were quenched by adding an equal volume of acetonitrile, centrifuged, and filtrated. The analytes (10 μl) were injected into a liquid chromatography coupled with diode array and single quadrupole mass spectroscopy detection (LC-DAD/MS) (Agilent 1290 Infinity II LC System equipped with DAD, Single Quadrupole Mass Spectrometers system). A Zorbax eclipse plus C18 column (5 μm, 4.6 × 250 mm) (Agilent Technology) was used for separation. The mobile phase system A was water with 0.1% (v/v) formic acid, and system B was acetonitrile with 0.1% (v/v) formic acid.
All fatty acids were prepared in absolute EtOH at 20 mM as stock solutions. The reaction was carried out in 50 mM NaH2PO4 buffer with 300 mM NaCl, pH 7.5, with 2.5 or 10% (v/v) of EtOH, 200 μM of a substrate, and 400 μM of H2O2. The reactions were performed at 25 °C for 1 h, and then the alkene product was measured using GC-MS after the reactions were quenched and extracted with two-fold volume of ethyl acetate.
as §3

[7] = target: T1, OleTJE; assay: Steady-state kinetics of C16FA decarboxylation with H2O2, C15 alkene by GC-MS; assay type: biochemical, Jeotgalicoccus sp. 8456; conditions: for Km / kcat: 400 μM H2O2, pH 7.5, 25 °C
Protocol: as §2

[8] = target: T1, OleTJE; set-up: method as in PMID 28276499; conditions: C14FA decarboxylation; cited from earlier work

CCCCCCCCCCCCCCCC(=O)O [C16FA, hexadecanoic acid]
Kd ([1]; 2.5% (v/v) EtOH): 1930 ± 160 nM
TΔS ([1]; 2.5% (v/v) EtOH): 16.13 ± 2.15 kcal/mol
ΔG ([1]; 2.5% (v/v) EtOH): -7.78 ± 0.05 kcal/mol
Kd ([1]; 10% (v/v) EtOH): 440 ± 10 nM
TΔS ([1]; 10% (v/v) EtOH): -5.15 ± 2.74 kcal/mol
ΔG ([1]; 10% (v/v) EtOH): -8.67 ± 0.01 kcal/mol
ΔH ([1]; 10% (v/v) EtOH): -12.19 ± 5.11 kcal/mol
Kd ([2]; 2.5% (v/v) EtOH): 950 ± 140 nM
TΔS ([2]; 2.5% (v/v) EtOH): 38.10 ± 2.65 kcal/mol
ΔG ([2]; 2.5% (v/v) EtOH): -8.22 ± 0.08 kcal/mol
ΔH ([2]; 2.5% (v/v) EtOH): 29.97 kcal/mol and 29.97 ± 2.93 kcal/mol
Kd ([2]; 10% (v/v) EtOH): 1260 ± 230 nM
TΔS ([2]; 10% (v/v) EtOH): 58.93 ± 2.00 kcal/mol
ΔG ([2]; 10% (v/v) EtOH): -8.06 ± 0.11 kcal/mol
ΔH ([2]; 10% (v/v) EtOH): 50.83 kcal/mol and 50.83 ± 2.10 kcal/mol
Kd ([3]; 2.5% (v/v) EtOH): 320 nM
Kd ([3]; 10% (v/v) EtOH): 530 nM
Kd ([3]; buffer (0% (v/v) EtOH)): 370 nM
Km [4]: 25 ± 0.6 µM
kcat [4]: 1.6 ± 0.0417 s⁻¹
Enhancement of kcat in 10% (v/v) EtOH compared to 2.5% (v/v) EtOH [5]: around 4.3 fold
kcat ([5]; 2.5% (v/v) EtOH): 0.343 ± 0.0083 s⁻¹
Km ([5]; 2.5% (v/v) EtOH, read-out: KM): 5.4 ± 0.6 µM
Km ([5]; 10% (v/v) EtOH): 16.7 ± 0.6 µM
kcat ([5]; 10% (v/v) EtOH): 1.47 ± 0.0267 s⁻¹
Decarboxylation activity of OleTJE L176I compared to that of OleTJE wild type [6]: less than 5%
Enhancement of kcat in 10% (v/v) EtOH compared to 2.5% (v/v) EtOH [7]: ~1.4 fold
Km ([7]; 2.5% (v/v) EtOH): 8.6 ± 1.4 µM
kcat ([7]; 2.5% (v/v) EtOH): 0.647 ± 0.015 s⁻¹
Km ([7]; 10% (v/v) EtOH): 9.6 ± 0.6 µM
kcat ([7]; 10% (v/v) EtOH): 0.918 ± 0.0033 s⁻¹

CCCCCCCCCCCCCC(=O)O [C14FA, tetradecanoic acid]
Decarboxylation activity of OleTJE L176I compared to that of OleTJE wild type [6]: less than 1%
kcat [8]: 1.18 s⁻¹
